The values below come from article PMC12147034, “Identification of alkynyl nicotinamide HSN748 as a RET solvent-front mutant inhibitor with intracranial efficacy” (RSC Medicinal Chemistry, 2025).

For one data set, the system named is B/KR(G810C/R/S) cells. As to the kind of experiment: Cell viability assay, RET solvent-front mutants stated jointly. The data set is classed as cell-based. The settings on record: read-out: IC50s for B/KR(G810C/R/S) cells; stated jointly for G810C, G810R and G810S. Here is the method:
(§1) BaF3 cell lines expressing a flag-tagged KIF5B-RET (B/KR) and the KIF5B-RET containing G810C, G810R, G810S, V804M, V804L mutations were as reported.[8,13,17,21–23] […] Infected cells were cultured for two weeks, and cells with high GFP intensity were sorted into a 96-well plate (1 cell/well). After the expansion of growing cell lines, they were screened for a high level of luciferase activity by luminescence imaging after exposure to D-luciferin. IMR-90 cells were from ATCC.
(§2) The TEL-VEGFR2 cDNA was then subcloned into pLentP lentiviral vector.[21] and BaF3/TEL-VEGFR2 (B/TV) cells were generated by infecting BaF3 cells with the lentiviral TEL-VEGFR2 as described. Cell viability assay was performed using CellTiter-Glo reagent (G7573, Promega, Madison, WI, USA) after 3 days of drug treatment as described for BaF3-derived cells and 5 days for IMR-90 cells.

In data set [1] the test system is KIF5B-RET-driven lung tumors. Briefly: KIF5B-RET-driven lung tumors in C/KR transgenic mice. The data set is classed as in vivo. Here is the method: For the HSN748 treatment experiment in CCSP-rtTA/tetO-KIF5B-RET(C/KR) transgenic mice,[16] approximately 2 months old male and female C/KR transgenic mice were fed with rodent chow containing 200 mg kg^−1 doxycycline (Dox Diet, Bio-Serv) for 4 months to induce KIF5B-RET-driven lung tumors. For the HSND19 treatment experiment in C/KR transgenic mice, 3 months old male and female C/KR transgenic mice were induced with doxycycline for 6 months as above and then treated with HSND19 or vehicle by oral gavage as indicated in Fig. 3E. At the endpoint, mouse lungs were collected and either fixed in 10% buffered formalin or snap-frozen in liquid nitrogen as described.[16,27]
For histological assessment of lung tumor burden and response to treatment, sections (4 μm thick) of formalin-fixed paraffin-embedded lung tissues were stained with hematoxylin and eosin (H&E). Two H&E-stained tissue sections that were 5 slides apart were scanned using an Axioscan Zeiss slide scanner at 20X magnification. The scanned lung images were then analyzed with the HALO® image analysis program (v3.6, Indica Labs). The random forest machine learning algorithm of HALO® was used to identify tumor vs. normal area by using the tissue classifier add-on. Tumor and normal areas were classified using normal mouse lungs as the reference. Fibrotic stroma was excluded.

The target of data set [2] is T1, BaF3/KIF5B-RET (B/KR) cells, RET WT (Homo sapiens, UniProt P07949+P33176).
T1 construct: FLAG; expressed in transfected cells; host or cells: BaF3
T1 sequence (P33176+P07949 with tags, fused parts or gaps): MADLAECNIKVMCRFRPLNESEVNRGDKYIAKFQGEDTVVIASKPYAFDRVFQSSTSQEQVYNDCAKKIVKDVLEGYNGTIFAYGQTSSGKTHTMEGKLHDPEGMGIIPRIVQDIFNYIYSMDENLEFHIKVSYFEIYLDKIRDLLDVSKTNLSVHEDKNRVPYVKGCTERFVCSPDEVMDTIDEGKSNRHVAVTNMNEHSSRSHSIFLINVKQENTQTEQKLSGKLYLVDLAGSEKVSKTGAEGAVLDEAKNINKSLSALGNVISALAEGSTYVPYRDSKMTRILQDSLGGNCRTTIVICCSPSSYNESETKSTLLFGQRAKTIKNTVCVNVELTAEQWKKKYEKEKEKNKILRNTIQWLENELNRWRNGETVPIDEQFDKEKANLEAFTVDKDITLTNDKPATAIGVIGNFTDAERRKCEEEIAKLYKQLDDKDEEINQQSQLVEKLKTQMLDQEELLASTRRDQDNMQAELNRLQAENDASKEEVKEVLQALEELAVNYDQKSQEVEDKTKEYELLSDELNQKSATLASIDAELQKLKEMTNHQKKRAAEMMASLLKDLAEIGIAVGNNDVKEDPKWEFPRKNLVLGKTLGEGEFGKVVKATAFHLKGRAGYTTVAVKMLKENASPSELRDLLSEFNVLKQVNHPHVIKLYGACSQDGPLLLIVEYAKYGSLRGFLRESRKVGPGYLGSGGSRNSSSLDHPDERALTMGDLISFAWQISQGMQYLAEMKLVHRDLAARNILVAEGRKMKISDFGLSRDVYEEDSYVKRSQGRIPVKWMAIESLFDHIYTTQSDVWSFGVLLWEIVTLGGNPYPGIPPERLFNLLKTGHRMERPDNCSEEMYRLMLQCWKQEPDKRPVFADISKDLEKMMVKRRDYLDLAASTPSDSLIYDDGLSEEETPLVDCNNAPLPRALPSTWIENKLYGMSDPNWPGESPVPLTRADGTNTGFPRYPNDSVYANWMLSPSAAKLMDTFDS
Briefly: Cell viability assay (CellTiter-Glo, 3 days) in B/KR cells. Type of data set: cell-based. Here is the method:
as §1, §2
On the technique in general: ATP-based viability assays read luminescence as a measure of living cells.

`CN1CCN(Cc2ccc(NC(=O)c3cncc(C#Cc4cnc5cccnn45)c3)cc2C(F)(F)F)CC1` [HSN748]: in the data set on B/KR(G810C/R/S) cells, the IC50 was under 33 nM. Also, in data set [1] (C/KR transgenic mice), the body weight loss entry was “not observed” and the “phospho-RET in lung tissue (immunoblotting)” value is on record as “suppressed”. Further, the “median lung tumor area” value in data set [1] (HSN748 experiment, 1 month treatment, Dox-induced C/KR mice, vehicle 20.1%) is reported as 9.2%. Also, the IC50 in data set [2] was 4.05 ± 0.18 nM.
Turning to `Cc1n[nH]c2ncc(C#Cc3cncc(C(=O)Nc4ccc(CN5CCN(C)CC5)c(C(F)(F)F)c4)c3)cc12` [HSND19, 5-((3-Methyl-1H-pyrazolo[3,4-b]pyridin-5-yl)ethynyl)-N-(4-((4-methylpiperazin-1-yl)methyl)-3-(trifluoromethyl)phenyl)nicotinamide], the figures for the IC50 (in the data set on B/KR(G810C/R/S) cells; in data set [2]) were under 33 nM and 1.95 ± 0.12 nM, respectively. Also, the “phospho-RET in lung tissue (immunoblotting)” value in data set [1] (C/KR transgenic mice) is “reduced”. Also, in data set [1] (HSND19 experiment, 1 month treatment, Dox-induced C/KR mice, vehicle 39%), the “median lung tumor burden” value is given as 4.84%.
As to `CCOc1ccc2ncc(C#Cc3cncc(C(=O)Nc4ccc(CN5CCN(C)CC5)c(C(F)(F)F)c4)c3)n2n1` [HSND14, 5-((6-Ethoxyimidazo[1,2-b]pyridazin-3-yl)ethynyl)-N-(4-((4-methylpiperazin-1-yl)methyl)-3-(trifluoromethyl)phenyl)nicotinamide], the results for the IC50 (with B/KR(G810C/R/S) cells; in data set [2]) were under 33 nM and 4.02 ± 0.19 nM, respectively.
